Assay results as given in patent publication US20230025807A1 (priority 2019, published 2023).

Target: T1, Human CD38 (Homo sapiens, UniProt P28907)
T1 construct: purchased BPS Bioscience 79287
T1 sequence (P28907 1-300): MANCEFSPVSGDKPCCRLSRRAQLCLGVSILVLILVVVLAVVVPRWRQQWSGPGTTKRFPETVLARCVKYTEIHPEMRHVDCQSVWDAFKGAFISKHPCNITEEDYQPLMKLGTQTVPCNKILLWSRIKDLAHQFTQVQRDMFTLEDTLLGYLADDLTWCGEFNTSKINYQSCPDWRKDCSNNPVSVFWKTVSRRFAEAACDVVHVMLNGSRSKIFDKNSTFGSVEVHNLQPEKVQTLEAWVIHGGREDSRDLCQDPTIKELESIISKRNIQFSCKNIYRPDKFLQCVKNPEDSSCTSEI
Assay: biochemical
Procedure: CD38 hydrolase buffer (4×) was thawed on ice and 1×CD38 hydrolase buffer was prepared by diluting 4×CD38 hydrolase buffer with water. CD38 hydrolase enzyme was diluted to […] with 1×CD38 hydrolase buffer (10 ng/well). Master mix was prepared by mixing equal volumes of water and CD38 hydrolase buffer (4×) and 10 μl of the mix was added to all the wells. Following master mix addition, 10 μl of the inhibitors and 20 μl of CD38 hydrolase enzyme were added to the wells. For wells designated blank, 10 μl and 20 μl of 1×CD38 hydrolase buffer was added respectively in place of CD38 enzyme and inhibitors. The plate was covered and incubated 30 min at room temperature with slow shaking at 400 rpm. After 30 min incubation, the plate was removed and 10 μl of diluted ε-NAD substrate was added to all the wells. The plate is incubated for 10 min, spun at 1200 rpm for 30 secs to remove bubbles and read in Tecan Spark using a fluorometer setting of excitation 300 nm and emission 410 nm. The reading for the blank was subtracted from all the values. IC50 for the test compounds were determined by using Graphpad prism software v7.0.

Q: With `COCCO[C@H]1CC[C@H](NC(=O)c2nc(-n3ccnc3)cc3cc[nH]c23)CC1` [Example 59, 5-(1H-imidazol-1-yl)-N-((1r,4r)-4-(2-methoxyethoxy)cyclohexyl)-1H-pyrrolo[2,3-c]pyridine-7-carboxamide] as the compound, how does the IC50 read?
A: 6 nM
